Assay results as given in patent publication US20120252773A1, “Method and composition for inhibiting cell proliferation and angiogenesis” (priority 2005, published 2012).
pIC50: −log10 of the molar value.

Legend:
[1] = tested on: Human Dermal Microvascular Endothelial Cells (HDMVEC); assay: Growth inhibition of HDMVEC cells, MTT, 7 days; assay type: cell-based; conditions: Endothelial cell, HDMVEC growth, procedures of Example 3, read-out: Inhibitory Effect (IC50 Value)
Method: To measure the inhibitory activity of (2) on growth of HDMVEC cells (Clonetics, San Diego, Calif.), 2,000 cells were seeded in each well of a 96-well plate in […] of EGM medium (Clonetics) supplemented with 5% fetal bovine serum (Sigma). The plate was incubated at 37° C. in a tissue culture incubator for 24 h, and then various concentrations of (2) dissolved in EGM were added to each well in 5-10 μl aliquots. Four wells were used for each concentration. Medium in each well was renewed with fresh test solution added every other day. After 7 days of culture, the viable cells were measured using reagents from an MTT kit (Promega Corporation, Madison, Wis.), using instructions provided by the supplier. The number of viable cells in treated wells relative to those in control wells gave the percentage of inhibition.
The procedures of Example 3 were carried out to evaluate the inhibitory effect of various compounds of the invention on the growth of HDMVEC cells (Clonetics, San Diego, Calif.).

[2] = tested on: HIF-1α protein in MDA-MB-231 human breast carcinoma cells; assay: HIF-1α protein expression by immunoblotting, MDA-MB-231 cells; assay type: cell-based; conditions: MDA-MB-231, same hypoxic/anoxic conditions as for (2)
Method: Hypoxia experiments were performed in either of two ways. To produce a very low ambient oxygen concentration (effectively anoxia), we used a protocol in which cells were incubated in a 5% CO2-air atmosphere at 37° C. overnight and then placed in aluminum gas-exchange chambers maintained at 37° C. (Laderoute K R et al. Mol Cell Biol 22: 2515-2523, (2002); Laderoute K R et al. Mol Cell Biol 24: 4128-4137, (2004)). The chambers containing the cells were then placed in a 37° C. circulating water bath and the original atmosphere was repeatedly exchanged with 5% CO2-95% N2 using a manifold equipped with a vacuum pump and a gas cylinder. Atmospheric oxygen partial pressure (pO2) values of less than or equal to 0.01% (relative to air at pO2 of about 21%) can be achieved inside the chambers using this system. Following various hypoxic exposures, the chambers were opened an anaerobic glove box (Bactron X, Sheldon Manufacturing Inc., Cornelius, Oreg.; attached to a cylinder containing 5% CO2-95% N2) to prepare cell lysates without significant reoxygenation. All manipulations of hypoxic cells were performed in the anaerobic glove box. Atmospheric oxygen levels in both the chambers and the glove box have been measured and calibrated using a polarographic oxygen electrode (Oxygen Sensors, Inc., Norristown, Pa.). […]
(§1) We used immunoblotting to evaluate the experiments. […] After spinning at 9,000×g for 5 min at 4° C., the protein concentrations of the supernatants were determined by using a bicinchoninic acid assay (Pierce Biotechnology). […] Primary antibody binding was detected and visualized by using the ECL Plus Western Blotting Detection System (Amersham Pharmacia Biotech) according to the supplier's instructions. HIF-1α protein was detected by using an anti-HIF-1α monoclonal antibody (Novus Biologicals, Cat. No. NB100-123; diluted 1:500) and a horseradish peroxidase-conjugated anti-mouse IgG secondary antibody (Santa Cruz Biotechnology, Cat. No. sc-2062; diluted 1:20,000). […]

[3] = tested on: HIF-1α protein in PC-3 prostate cancer cells; assay: HIF-1α protein expression by immunoblotting, PC-3 cells; assay type: cell-based, human; conditions: PC-3, same hypoxic/anoxic conditions as for (2)
Method: Hypoxia experiments were performed in either of two ways. To produce a very low ambient oxygen concentration (effectively anoxia), we used a protocol in which cells were incubated in a 5% CO2-air atmosphere at 37° C. overnight and then placed in aluminum gas-exchange chambers maintained at 37° C. (Laderoute K R et al. Mol Cell Biol 22: 2515-2523, (2002); Laderoute K R et al. Mol Cell Biol 24: 4128-4137, (2004)). The chambers containing the cells were then placed in a 37° C. circulating water bath and the original atmosphere was repeatedly exchanged with 5% CO2-95% N2 using a manifold equipped with a vacuum pump and a gas cylinder. Atmospheric oxygen partial pressure (pO2) values of less than or equal to 0.01% (relative to air at pO2 of about 21%) can be achieved inside the chambers using this system. Following various hypoxic exposures, the chambers were opened an anaerobic glove box (Bactron X, Sheldon Manufacturing Inc., Cornelius, Oreg.; attached to a cylinder containing 5% CO2-95% N2) to prepare cell lysates without significant reoxygenation. All manipulations of hypoxic cells were performed in the anaerobic glove box. Atmospheric oxygen levels in both the chambers and the glove box have been measured and calibrated using a polarographic oxygen electrode (Oxygen Sensors, Inc., Norristown, Pa.). Hypoxia experiments involving a pO2 of 1% were performed by equilibrating the glove box with an atmosphere of 1% O2 5% CO2 […] held at 37° C. with a circulating fan. Cells were incubated inside a humidified space in the glove box and the medium on the cells was gently and continually agitated by using a rotary shaker. For these experiments, we used RAW 264.7 immortalized mouse macrophages as normal control cells, PC-3 prostate cancer cells, and MDA-MB-231 breast cancer cells, all available from ATCC.
as §1, with “experiments. Nuclear lysates were used to detect HIF-1α protein by immunoblotting (Murphy B J et al. Biochem Biophys Res Commun (In Press): 2005). Briefly, cells were placed on ice in air or on Super Ice® cold packs in the anaerobic glove box and the medium was removed.” for “experiments.”

[4] = tested on: human endometrial Ishikawa cells; assay: Estrogenic activity, alkaline phosphatase, Ishikawa cell-based assay; conditions: 72 hours
Method: Ishikawa cell based assays were run in parallel on human endometrial Ishikawa cells treated with compound (2) or with 2-methoxyestradiol. 2-Methoxyestradiol is a compound reported in the literature as an anti-angiogenic agent. Cells were cultured in 96-well plates for 48 hours in estrogen- and phenol red-free medium (DMEM/Hamm's F12 medium) containing 5% fetal bovine serum stripped of endogenous estrogens with dextran coated charcoal (Sigma). Compound (2) or other test compounds were then added to the cells and culturing was continued for an additional 72 hours. To the control cells (no (2)), 10^−9 M of […] was added. At the end of 72 hours, alkaline phosphatase activity was measured by adding 5 mM p-nitrophenyl phosphate, 0.24 mM MgCl2, and 1 M diethanolamine (pH 9.8) to the cells while the 96-well plates were kept on ice. The plates were then warmed to room temperature, and the yellow color from the production of p-nitrophenol was measured after 2-3 hours using an ELISA plate reader at a wavelength of 405 nm. The estrogenic activity was defined as the alkaline phosphatase activity stimulated by the test compounds alone as a percentage of that stimulated by estradiol at 10^−9 M. Stimulation by estradiol at 10^−9 M was taken as 100%.

Row | Compound | pIC50 [1] | further results
1 | COc1cc(CN2CCCC2)ccc1OCCC1CCC2C3C(CCC12C)c1ccc(O)cc1C[C@H]3C (some centres unmarked) | 5.92 | 
2 | CCN(CC)Cc1ccc(OCCC2CCC3C4CCc5cc(O)ccc5C4CCC23C)c(OC)c1 (centres unmarked) | 5.70 | 
3 | C[C@@H]1Cc2cc(O)ccc2C2CCC3(C)C(CCOCCN(C)C)CCC3C21 (some centres unmarked) | 5.40 | 
4 | COc1cc2c(cc1O)CC[C@@H]1[C@@H]2CC[C@]2(C)[C@@H](O)CC[C@@H]12 [2-methoxyestradiol, 2-Methoxyestradiol, reference compound] |  | HIF-1α protein expression, standard HIF-1 inhibitors [2]: did not find any effect; HIF-1α protein expression, standard HIF-1 inhibitors [3]: did not find any effect; estrogenic activity (alkaline phosphatase stimulation relative to estradiol at 10^−9 M) [4]: large amount of estrogenic activity
5 | CCN(CC)Cc1ccccc1OC/C=C1\CCC2C3C(CCC12C)c1ccc(O)cc1C[C@H]3C (some centres unmarked) | 5.33 | 
6 | OCc1ccc(-c2nn(Cc3ccccc3)c3ccccc23)o1 [YC-1, reference compound] |  | HIF-1α protein expression, standard HIF-1 inhibitors [2]: did not find that YC-1, another standard HIF-1 inhibitor, could reproducibly inhibit; HIF-1α protein expression, standard HIF-1 inhibitors [3]: did not find that YC-1, another standard HIF-1 inhibitor, could reproducibly inhibit
7 | CCN(CC)Cc1cc(OC)c(OCCC2CCC3C4C(CCC23C)c2ccc(O)cc2C[C@H]4C)c(OC)c1 (some centres unmarked) | 5.44 | 
8 | COC(=O)/C=C/c1ccc(OC/C=C2\CCC3C4C(CCC23C)c2ccc(O)cc2C[C@H]4C)cc1 (some centres unmarked) | 5.28 | 
9 | C[C@@H]1Cc2cc(O)ccc2C2CCC3(C)C(CCOc4ccc(C=O)cc4Cl)CCC3C21 (some centres unmarked) | 5.00 | 
10 | COc1cc(CN2CCCCC2)ccc1OCCC1CCC2C3C(CCC12C)c1ccc(O)cc1C[C@H]3C (some centres unmarked) | 6.22 | 
11 | CN(C)CCOC/C=C1\CCC2C3CCc4cc(O)ccc4C3CCC12C (centres unmarked) | 5.74 | 
12 | COc1cc(CO)ccc1OCCC1CCC2C3C(CCC12C)c1ccc(O)cc1C[C@H]3C (some centres unmarked) | 5.30 | 
13 | CCN(CC)Cc1ccc(OC/C=C2\CCC3C4C(CCC23C)c2ccc(O)cc2C[C@H]4C)c(OC)c1 (some centres unmarked) | 5.82 | 
14 | CCN(CC)Cc1ccc(OCCC2CCC3C4C(CCC23C)c2ccc(O)cc2C[C@H]4C)c(OC)c1 (some centres unmarked) | 5.70 | 
